Assay [1] addresses Serine protease 1 (Homo sapiens, UniProt P07477). Kind of assay: In vitro inhibitory activity against Trypsin.
Assay [2] deals with Coagulation factor X (Homo sapiens, UniProt P00742). Kind of assay: In vitro inhibitory activity against Factor Xa.
Assay [3] is filed under the species Homo sapiens. Kind of assay: Concentration required to double the […] prothrombin time in human plasma (PT). It is filed as functional, cell-free.
In assay [4] the target is Thrombin & trypsin (Homo sapiens) (UniProt P00734+P07477+P07478+P35030). Kind of assay: Selectivity ratio of thrombin to trypsin. The class given is protein assay.
The species entered for assay [5] is Homo sapiens. Kind of assay: Concentration required to double the thrombin time in human plasma (TT). The class given is functional, cell-free.
The species named for assay [6] is Homo sapiens. Kind of assay: Concentration required to double the activated partial thromboplastin time in human plasma (APTT). It is filed as functional, cell-free.
In assay [7] the target is Prothrombin (Homo sapiens, UniProt P00734). Kind of assay: In vitro inhibitory activity against Thrombin.

Serine protease 1, sequence (P07477 whole entry): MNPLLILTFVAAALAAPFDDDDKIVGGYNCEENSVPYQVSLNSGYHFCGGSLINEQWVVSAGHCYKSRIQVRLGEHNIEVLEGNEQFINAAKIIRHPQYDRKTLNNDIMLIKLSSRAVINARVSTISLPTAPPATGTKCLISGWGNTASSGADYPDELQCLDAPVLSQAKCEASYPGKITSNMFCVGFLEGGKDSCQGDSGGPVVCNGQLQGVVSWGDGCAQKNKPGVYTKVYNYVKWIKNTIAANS
Coagulation factor X, sequence (P00742 41-179 limits assumed): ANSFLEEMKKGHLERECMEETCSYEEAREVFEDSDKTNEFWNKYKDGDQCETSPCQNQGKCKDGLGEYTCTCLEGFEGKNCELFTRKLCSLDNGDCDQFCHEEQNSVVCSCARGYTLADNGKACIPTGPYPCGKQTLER
Coagulation factor X, sequence (P00742 235-488 limits assumed): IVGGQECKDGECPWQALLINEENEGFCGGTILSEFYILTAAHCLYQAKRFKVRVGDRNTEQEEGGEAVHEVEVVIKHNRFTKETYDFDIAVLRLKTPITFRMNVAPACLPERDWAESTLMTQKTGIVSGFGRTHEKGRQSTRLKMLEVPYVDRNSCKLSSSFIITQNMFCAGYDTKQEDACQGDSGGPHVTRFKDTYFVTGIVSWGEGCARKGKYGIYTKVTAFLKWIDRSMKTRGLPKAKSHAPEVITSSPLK

What is called Ki is a dissociation constant, usually derived from enzyme kinetics or from competition with a known ligand. A higher Ki goes with lower affinity. As to `O=C(NCC1CCc2n[nH]cc2C1)[C@@H]1CCCN1C(=O)[C@@H](CC1CCCCC1)NS(=O)(=O)Cc1ccccc1` (stereo partly drawn), the values for the inhibition constant (Ki) in assay [1] and in assay [2] were more than 68.3 µM and more than 75.4 µM, respectively. The Concentration in assay [3] came to 78.3 µM; in assay [5], 11 µM; in assay [6], 42.3 µM. In addition, the Ratio in assay [4] was more than 478.

In the case of `N[C@@H](C(=O)N1CCC[C@H]1C(=O)NCC1CCc2n[nH]cc2C1)C(c1ccccc1)c1ccccc1` (stereo partly drawn), the figures for the Ki in assay [1] and in assay [2] were 217 µM and 82.1 µM, respectively.

Turning to `Nc1ncc2c(n1)CCC(CNC(=O)[C@@H]1CCCN1C(=O)[C@H](N)C(c1ccccc1)c1ccccc1)C2` (stereo partly drawn), the Ki in assay [1] worked out at 409 µM; in assay [2] it was 57.6 µM; in assay [7], 12.9 µM. In assay [4], the Ratio is 32.

As for `O=C(O)CN[C@H](CC1CCCCC1)C(=O)N1CCC[C@H]1C(=O)NCC1CCc2n[nH]cc2C1` (stereo partly drawn), the Ki amounted to 19.9 µM in assay [1] and 84.8 µM in assay [2]. In addition, the Concentration in assay [3] came to 55.3 µM; in assay [5] it was 4.9 µM; in assay [6], 28 µM. Moreover, in assay [4], the Ratio amounted to 71.

In the case of `Cn1cc2c(n1)CCC(NC(=O)[C@@H]1CCCN1C(=O)[C@@H](CC1CCCCC1)NS(=O)(=O)Cc1ccccc1)C2` (stereo partly drawn), the Ki in assay [1] amounted to 730 µM.

Consider `O=C(NC1CCc2c[nH]cc2C1)[C@@H]1CCCN1C(=O)[C@@H](CC1CCCCC1)NS(=O)(=O)Cc1ccccc1` (stereo partly drawn), for which the Ki in assay [1] amounted to 416 µM; in assay [7], 27.3 µM. In addition, the Ratio in assay [4] was found to be 15.

As for `Nc1ncc2c(n1)CCC(CNC(=O)[C@@H]1CCCN1C(=O)[C@@H](CC1CCCCC1)NS(=O)(=O)Cc1ccccc1)C2` (stereo partly drawn), the inhibition constant Ki in assay [1] is more than 68.3 µM; in assay [2], more than 75.4 µM; in assay [7], more than 35.1 µM.

Consider `O=C(NC1CCc2n[nH]cc2C1)[C@@H]1CCCN1C(=O)[C@@H](CC1CCCCC1)NS(=O)(=O)Cc1ccccc1` (stereo partly drawn), for which the results for the inhibition constant (Ki) in assay [1], in assay [2] and in assay [7] were more than 68.3 µM, more than 75.4 µM and 5.38 µM, respectively. The Ratio in assay [4] was more than 13.

Consider `N[C@H](Cc1ccc(Cl)c(Cl)c1)C(=O)N1CCC[C@H]1C(=O)NCC1CCc2n[nH]cc2C1` (stereo partly drawn), for which the Ki in assay [1] was more than 68.3 µM; in assay [2], more than 75.4 µM; in assay [7], 0.69 µM. In assay [4], the Ratio is more than 99.

Turning to `Nc1ncc2c(n1)CCC(CNC(=O)[C@@H]1CCCN1C(=O)[C@H](N)Cc1ccc(Cl)c(Cl)c1)C2` (stereo partly drawn), the inhibition constant (Ki) in assay [1] is more than 68.3 µM; in assay [2], more than 75.4 µM; in assay [7] it was more than 35.1 µM.

For `CC(C)(C)OC(=O)N[C@H](Cc1ccc(Cl)c(Cl)c1)C(=O)N1CCC[C@H]1C(=O)NCC1CCc2n[nH]cc2C1` (stereo partly drawn), the figures for the Ki in assay [1], in assay [2] and in assay [7] were more than 68.3 µM, more than 75.4 µM and 3.33 µM, respectively. The Ratio in assay [4] was more than 21.

Regarding `O=C(NCC1CCc2ncncc2C1)[C@@H]1CCCN1C(=O)[C@@H](CC1CCCCC1)NS(=O)(=O)Cc1ccccc1` (stereo partly drawn), the Ki in assay [1] was determined as 342 µM; in assay [2], 111 µM.

Take `Nc1ncc2c(n1)CCC(NC(=O)[C@@H]1CCCN1C(=O)[C@@H](CC1CCCCC1)NS(=O)(=O)Cc1ccccc1)C2` (stereo partly drawn): the inhibition constant (Ki) was more than 68.3 µM in assay [1], more than 75.4 µM in assay [2] and more than 35.1 µM in assay [7].

For `CC(C)(C)OC(=O)N[C@@H](C(=O)N1CCC[C@H]1C(=O)NCC1CCc2n[nH]cc2C1)C(c1ccccc1)c1ccccc1` (stereo partly drawn), the Ki is 85.2 µM in assay [2] and 0.53 µM in assay [7]. For the same molecule, the Concentration in assay [3] amounted to 105 µM; in assay [5], 29.2 µM; in assay [6], 81 µM.

As to `CC(C)(C)OC(=O)N[C@H](Cc1ccc(Cl)c(Cl)c1)C(=O)N1CCC[C@H]1C(=O)NCC1CCc2nc(N)ncc2C1` (stereo partly drawn), the inhibitory constant (Ki) in assay [1] is more than 68.3 µM; in assay [2] it was more than 75.4 µM; in assay [7] it was more than 35.1 µM.

The values are drawn from ChEMBL document CHEMBL1136607, “Novel thrombin inhibitors incorporating non-basic partially saturated heterobicyclic P1-arginine mimetics” (Bioorg Med Chem Lett, 2003).
